Data reported in article PMC5317004 (Scientific Reports, 2017).

Tests used:
homomeric GluClβR [1] = system: T1, homomeric GluClβR; experiment: Effect of IVM on Glu-elicited currents of homomeric GluClβ receptors in CHO cells (whole-cell patch clamp); type: cell-based, C. elegans; conditions: 100 mM Glu, four cells, mean ± SEM
T1 construct: homomeric receptors assembled from the full-length C. elegans GluClβ subunit; expressed in transfected cells; host or cells: CHO-K1 cells, transient transfection, pcDNA3.1
Description: Figure 9 Effect of IVM on homomeric GluClβ receptors. (A) Representative current traces obtained by the indicated application protocol. Glu (100 mM) was applied for either 350 ms to obtain peak IP0 at −60 mV, or 600 ms to obtain peaks IP1, IP2 and IP3 at +60 mV. Note that the responses at both membrane voltages, −60 and +60 mV, start to desensitize appreciably before the end of Glu application. IVM (2 μM) was applied for 10 seconds. Asterisk indicates a 25-sec-long wash between the second and third Glu applications. (B) Current-voltage (I/V) relations obtained in a different cell than in A upon the application of Glu (100 mM) over a voltage ramp lasting 200 ms. […] Current ratios were extracted from experiments performed as shown in (A). Mean ± SEM of four cells are presented. Paired, two-tailed Student’s t-tests indicate that **0.001 < P < 0.01 and ***P < 0.0002.
Supplementary Information
Trapping of ivermectin by a pentameric ligand-gated ion channel upon open-to-cl ose d i someri zati on N. Degani-Katzav, M. Klein, M. Har-Even, R. Gortler, R. Tobi and Y. Paas*
Supplementary Materials and Methods […]
The electrode resistance was 6-10 MΩ when filled with the pipette solution. […] The currents w ere measured with an Axopatch 200B patch-clamp amplifier (Molecular Devices, Sunnyvale, CA) and a Digidata 1440A interface (Molecular Devices). […]

homomeric GluClβR [2] = system: homomeric GluClβR; design: method as in PMID 7935817; conditions: Xenopus oocytes; read-out: Glu EC50; cited from earlier work
chimeric α7-GluClβR [3] = experiment: IVM added after activation by ACh: kinetics and extent of current decline (whole-cell patch clamp); type: cell-based, chick nAChR α7 / C. elegans GluClβ
Description: Following a further wash (for a minute), the same cell was challenged again with a 5-μM-IVM solution (in 0.01% DMSO; red bar, arrow and trace). Recordings were performed at −60 mV. (B) Time constant of current decline (τd). Values of τd were determined by exponential fits to the declining phase of the currents using Eq. 3. […] Error bars correspond to SEM of N = 6 and N = 5 cells for recordings at −60 mV and −20 mV, respectively. Paired, two-tailed Student’s t-tests indicate that for not significant (“ns”) P > 0.3, and ** 0.001 < P < 0.005.
Figure 8 The inhibition of ACh-elicited currents by addition of IVM is irreversible. […] (B) Representative currents for the same experiment as in A, but with the exception of IVM (0.5 μM) addition after the ACh-elicited current reached to its peak (IP1). Inset, magnification of the indicated segment of the current trace. In both panels A and B, black bars above the current traces indicate ACh or IVM applications. […] Error bars correspond to SEM. Unpaired, two-tailed Student’s t-tests indicate *** P < 0.0001.
The declining phase of the currents was fitted with an exponential time course to give the time constant of current decline by using equation 3, […]
I is the current, IP is the peak of the current, IS is the steady state current, t is the time, and τ is the time constant of current decline. […]
Supplementary Materials and Methods
The structural mo del of the chi meric α7-GluClβR was built based on th e methodologies published previously1,2, and the sequence of the chimeric subunit is presented in […]
DNA construct and preparation of cells for electrophysiological experiments The cDNA encoding the α7-GluClβ chimeric subunit was generated as described previously3, and was cloned into a pcDNA3.1 vector.
Chinese hamster ovary cells (CHO-K1, ATCC via Biological Industries Israel, Beit Haemek Ltd.) were cultured as performed previously2 in Dulbecco 's Modified E agle Med iu m (DMEM) containing 10% fetal calf serum (Biological Industries Israel Beit Haemek Ltd.), 2 mM glutamax, 100 Units/ml penicillin G and 100 μg/ml streptomycin, and grown in 5% CO2 at 37°C under 90-95% hu midity . CHO cells were seeded on glass coverslips (13-mm diameter) placed in a 24-multiwell plate. For the expression of the α7-GluClβR, cells were transiently transfected with the pcDNA3.1 plasmid containing the receptor’s ORF (200-600 ng per well) using transit-LT1 transfection reagent (Mirus, USA), according to the manufacturer’s protocol. pIRES-CD8 plas mid (200 ng per well) was also added to enable visualization of the ex pressing cells by beads coated with anti-CD8 antibodies (Invitrogen). For the expression of GluClβ ho mo mers, we used the pcDNA3.1 plas mid containing the GluClβ-subunit ORF (600-1000 ng per well), pIRES-CD8 plas mid (200 ng per well) and th e X-tremeGENE HP DNA Transfection Reagent (Roche Life Science). Recordings were performed 48-72 hours following transfection.
Whole-cell patch clamp recordings
Recordings were performed in the aforementioned CHO cells, as previously described1,2. Whole-cell patch clamp experiments were performed with normal external solution (NES) contained (in millimolar): 140 NaCl, 2.8 KCl, 2 CaCl2, 2 MgCl2, 10 glucose and 10 HEPES, adjusted to pH 7.35 with NaOH (310 mOsM). The pipette solution contained […]
(in millimolar): 130 KCl, 4 MgCl2, 4 Na2ATP, 1 EGTA and 10 HEPES, adjusted to pH 7.35 with KOH (290 mOsM). The osmolarity of these solutions was maintained by adding sucrose.
The electrode resistance was 6-10 MΩ when filled with the pipette solution. External solutions were applied onto the cell by using the VC-77SP fast-step system (Warner Instruments, CT, USA) combined with N2 pressure of 3-4 psi to produce laminar flow of the external solution onto the patched cell. All measurements were performed at 25 °C. The currents w ere measured with an Axopatch 200B patch-clamp amplifier (Molecular Devices, Sunnyvale, CA) and a Digidata 1440A interface (Molecular Devices). […]

chimeric α7-GluClβR [4] = biological target: chimeric α7-GluClβR (Gallus gallus / Caenorhabditis elegans, UniProt P22770, M226I/T225I); experiment: ACh dose-response, whole-cell patch clamp in CHO cells expressing the chimeric receptor; type: cell-based, chick nAChR α7 / C. elegans GluClβ; conditions: −60 mV
Chain of chimeric α7-GluClβR (Gallus gallus / Caenorhabditis elegans, UniProt P22770, M226I/T225I) (P22770 24-230 T225I/M226I): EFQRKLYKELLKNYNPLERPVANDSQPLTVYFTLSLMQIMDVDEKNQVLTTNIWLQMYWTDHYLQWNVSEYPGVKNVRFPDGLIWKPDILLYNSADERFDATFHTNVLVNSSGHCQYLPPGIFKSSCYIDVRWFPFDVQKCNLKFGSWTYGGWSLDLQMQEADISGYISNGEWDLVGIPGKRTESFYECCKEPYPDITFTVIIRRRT
Chain of chimeric α7-GluClβR (Gallus gallus / Caenorhabditis elegans, UniProt P22770, M226I/T225I) (Q17328 245-434, further chain): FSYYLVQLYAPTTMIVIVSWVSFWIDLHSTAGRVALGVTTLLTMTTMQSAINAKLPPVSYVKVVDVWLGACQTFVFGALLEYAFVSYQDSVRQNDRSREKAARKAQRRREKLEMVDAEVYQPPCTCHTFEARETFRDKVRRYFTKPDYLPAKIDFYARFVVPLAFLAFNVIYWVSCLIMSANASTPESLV

Row | Structure (SMILES) | I+60mV/I−60mV of Glu-elicited responses (homomeric GluClβR [1]) | EC50 (homomeric GluClβR [2]) | current remaining at end of initial application, percent IS/IP1 (chimeric α7-GluClβR [3]; 30 μM ACh alone for 9.6 sec, N = 10) | τd1, time constant of current decline (chimeric α7-GluClβR [3]; 30 μM ACh alone, 9.6 sec, N = 10) | current remaining at end of application, percent of the peak amplitude (chimeric α7-GluClβR [3]; 350 μM ACh alone for 5.5 sec, N = 5) | time between the start of application and the onset of effect (chimeric α7-GluClβR [3]; six experiments as in Fig. 5A, 350 μM ACh, 5 μM IVM) | Hill coefficient (ACh dose-response) (chimeric α7-GluClβR [4])
1 | N[C@@H](CCC(=O)O)C(=O)O [Glu, glutamate] | 2.8 ± 0.2 | 380 µM |  |  |  |  | 
2 | CC(=O)OCC[N+](C)(C)C [ACh, acetylcholine] |  |  | 35 ± 4% | 4268 ± 224 ms | 31 ± 8.6% | 67 ± 7 milliseconds | 2.55 ± 0.3
